Source: patent publication US6740645B1, “17β-acyl-17α-propynyl-11β-(cyclic amino) aryl steroids and their derivatives having antagonist hormonal properties” (Research Triangle Institute, priority 1999, dated 2004)

Tested on: rabbit uterus
Assay: anti-McGinty test for antiprogestational activity (McPhail Index)
Assay type: in vivo
Conditions: for McPhail Index: estrogen-primed immature female rabbits, n = 3
Description: Biological activity was examined by means of the anti-McGinty test for antiprogestational activity. Immature female rabbits weighing 1000 to 1100 grams were primed with estrogen (5 μg of estradiol in sesame oil as vehicle, given subcutaneously) for 6 days, followed by a surgical procedure to introduce the test compounds into the uterine horn [see for example Teruhiko Tamaya, et al., Local progestational and antiprogestational effects of steroids and their metabolites on the rabbit uterus. Japanese Journal of Fertility and Sterility 24:48-51 (1979)]. A single dose of test compound in sesame oil as vehicle, accompanied by a single dose of progesterone (0.3 μg in sesame oil as vehicle) was given. On the third day (dosing being day one) the animals were sacrificed. The uteri were then removed, weighed and a section was kept in 10% formalin for microslide preparation for McPhail Index [M. K. McPhail, The Journal of Physiology, 83: 10 (1934)] determination. […] Antiprogestational compounds should block the effect of progesterone on the McPhail Index, which is zero in the absence of progesterone.

[1] = total dose 0.3 (μg) of test compound + progesterone 0.3 μg, single dose into uterine horn
[2] = total dose 3 of test compound + progesterone 0.3 μg, single dose into uterine horn
[3] = total dose 30 of test compound + progesterone 0.3 μg, single dose into uterine horn

SMILES	McPhail Index (progesterone (P) alone, total dose 0.3 (μg), uterine horn)	McPhail Index [1]	McPhail Index [2]	McPhail Index [3]	antiprogestational effect (in words) (0.3 μg dose, anti-McGinty test)	antiprogestational potency compared with RTI-6617-048 and RTI-6617-040 (in words) (anti-McGinty test, Table 1)
CC(=O)[C@H]1CC[C@H]2[C@@H]3CCC4=CC(=O)CC[C@]4(C)[C@H]3CC[C@]12C [Progesterone, progesterone]	2.2 +/− 0.3					
CC#C[C@]1(C(C)=O)CC[C@H]2[C@@H]3CCC4=CC(=O)CCC4=C3[C@@H](c3ccc(N(C)C)cc3)C[C@@]21C [RTI-6617-040, 11β-[4-(N,N-Dimethylamino)phenyl]-17α-(1-propynyl)-19-norpregna-4,9-diene-3,20-dione]		1.83 +/− 0.36	0.0 +/− 0.0	0.0 +/− 0.0		
CC#CC1(C(C)=O)CCC2C3CCC4=CC(=O)CCC4=C3C(c3ccc(N4CCCCC4)cc3)CC21C (stereo not drawn) [RTI-6617-041, 11β-[4-(N-piperidino)phenyl]-17α-(1-propynyl)-19-norpregna-4,9-diene-3,20-dione]		0.78 +/− 0.21	0.0 +/− 0.0	0.0 +/− 0.0	marked effect	markedly more potent
C#CC1(C(C)=O)CCC2C3CCC4=CC(=O)CCC4=C3C(c3ccc(N4CCCCC4)cc3)CC21C (stereo not drawn) [RTI-6617-048, 11β-[4-(N-Piperidino)phenyl]-17α-ethynyl-19-norpregna-4,9-diene-3,20-dione]		1.94 +/− 0.31	0.89 +/− 0.3	0.0 +/− 0.0		
